# PubChem BioAssay AID2060618 (Molecular Pharmacology Branch, DTP, NCI, 2025)
# Where “and” joins values, the source holds several entries; their conditions need not be identical. Equal values may be shown once.
# Tested on: 454973-116-R2-J3-PDC spheroids, percent test/control viability
# Experiment: Anticancer human tumor 454973-116-R2-J3-PDC patient-derived pancreatic carcinoma cell line growth inhibition [CLK]
# Conditions: spheroids with HUVEC and MSC; for viability, T/C: stronger effect = lower value
# Procedure, shortened: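 Patient-derived tumor cells grown as complex spheroids with HUVEC endothelial cells and mesenchymal stem cells, treated with drug combinations. Concentrations descend in half-log steps from near clinical Cmax, or from 10 microM if Cmax unknown.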
# [1] = curve of first compound, second compound 0.0316 µM
# [2] = curve of first compound, second compound 0.1 µM
# [3] = curve of first compound, second compound 0.316 µM
# [4] = curve of first compound, second compound 1 µM
# [5] = curve of first compound, second compound 3.16 µM
# [6] = curve of first compound, second compound 10 µM
# [7] = second compound 0.0316 µM, first compound 0.0316 µM
# [8] = second compound 0.0316 µM, first compound 0.1 µM
# [9] = second compound 0.0316 µM, first compound 0.316 µM
# [10] = second compound 0.0316 µM, first compound 1 µM
# [11] = second compound 0.0316 µM, first compound 3.16 µM
# [12] = second compound 0.0316 µM, first compound 10 µM
# [13] = second compound 0.1 µM, first compound 0.0316 µM
# [14] = second compound 0.1 µM, first compound 0.1 µM
# [15] = second compound 0.1 µM, first compound 0.316 µM
# [16] = second compound 0.1 µM, first compound 1 µM
# [17] = second compound 0.1 µM, first compound 3.16 µM
# [18] = second compound 0.1 µM, first compound 10 µM
# [19] = second compound 0.316 µM, first compound 0.0316 µM
# [20] = second compound 0.316 µM, first compound 0.1 µM
# [21] = second compound 0.316 µM, first compound 0.316 µM
# [22] = second compound 0.316 µM, first compound 1 µM
# [23] = second compound 0.316 µM, first compound 3.16 µM
# [24] = second compound 0.316 µM, first compound 10 µM
# [25] = second compound 1 µM, first compound 0.0316 µM
# [26] = second compound 1 µM, first compound 0.1 µM
# [27] = second compound 1 µM, first compound 0.316 µM
# [28] = second compound 1 µM, first compound 1 µM
# [29] = second compound 1 µM, first compound 3.16 µM
# [30] = second compound 1 µM, first compound 10 µM
# [31] = second compound 3.16 µM, first compound 0.0316 µM
# [32] = second compound 3.16 µM, first compound 0.1 µM
# [33] = second compound 3.16 µM, first compound 0.316 µM
# [34] = second compound 3.16 µM, first compound 1 µM
# [35] = second compound 3.16 µM, first compound 3.16 µM
# [36] = second compound 3.16 µM, first compound 10 µM
# [37] = second compound 10 µM, first compound 0.0316 µM
# [38] = second compound 10 µM, first compound 0.1 µM
# [39] = second compound 10 µM, first compound 0.316 µM
# [40] = second compound 10 µM, first compound 1 µM
# [41] = second compound 10 µM, first compound 3.16 µM
# [42] = second compound 10 µM, first compound 10 µM
# 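Also: spheroids exposed to compounds for 7 days before readout.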
compound,measurement,setting,value
CCCS(=O)(=O)Nc1ccc(F)c(C(=O)c2c[nH]c3ncc(-c4ccc(Cl)cc4)cc23)c1F + CNC(=O)c1ccc(Nc2nc(OC3CCCC3)c3c(-c4ccc5nc(C)oc5c4)c[nH]c3n2)c(OC)c1,IC50,[1],6.96 µM
same,IC50,[2],7.25 µM
same,IC50,[3],0.0316 µM
same,IC50,[4],< 0.0316 µM
same,IC50,[5],< 0.0316 µM
same,IC50,[6],< 0.0316 µM
same,"viability, T/C",[7],96%
same,"viability, T/C",[8],107%
same,"viability, T/C",[9],102%
same,"viability, T/C",[10],126%
same,"viability, T/C",[11],107%
same,"viability, T/C",[12],23.8%
same,"viability, T/C",[13],97.5%
same,"viability, T/C",[14],106%
same,"viability, T/C",[15],111%
same,"viability, T/C",[16],111%
same,"viability, T/C",[17],109%
same,"viability, T/C",[18],27.9%
same,"viability, T/C",[19],48.2%
same,"viability, T/C",[20],45.2%
same,"viability, T/C",[21],45.5%
same,"viability, T/C",[22],51.2%
same,"viability, T/C",[23],53%
same,"viability, T/C",[24],14.4%
same,"viability, T/C",[25],32.2%
same,"viability, T/C",[26],33.6%
same,"viability, T/C",[27],33%
same,"viability, T/C",[28],37%
same,"viability, T/C",[29],32%
same,"viability, T/C",[30],12.9%
same,"viability, T/C",[31],27.9%
same,"viability, T/C",[32],27.3%
same,"viability, T/C",[33],31.6%
same,"viability, T/C",[34],36.7%
same,"viability, T/C",[35],29.7%
same,"viability, T/C",[36],10.4%
same,"viability, T/C",[37],26.2%
same,"viability, T/C",[38],23.9%
same,"viability, T/C",[39],25.9%
same,"viability, T/C",[40],29.4%
same,"viability, T/C",[41],31.9%
same,"viability, T/C",[42],9.04%
C#Cc1c(F)ccc2cc(O)cc(-c3ncc4c(N5CC6CCC(C5)N6)nc(OCC56CCCN5CC(F)C6)nc4c3F)c12 (configuration not stated),"viability, T/C",compound 0.0316 µM,57% and 54.6%
same,"viability, T/C",compound 0.1 µM,43.1% and 39.1%
same,"viability, T/C",compound 0.316 µM,33.8% and 39.8%
same,"viability, T/C",compound 1 µM,29.4% and 31.3%
same,"viability, T/C",compound 3.16 µM,30.1% and 29.4%
same,"viability, T/C",compound 10 µM,22.2% and 18.5%
same,IC50,curve of compound,0.0558 µM and 0.0435 µM
CC1COCCN1c1cc(C2(S(C)(=N)=O)CC2)nc(-c2ccnc3[nH]ccc23)n1 (configuration not stated),"viability, T/C",compound 0.0316 µM,109% and 101%
same,"viability, T/C",compound 0.1 µM,109% and 97.7%
same,"viability, T/C",compound 0.316 µM,104% and 102%
same,"viability, T/C",compound 1 µM,101% and 98%
same,"viability, T/C",compound 3.16 µM,91.1% and 87.8%
same,"viability, T/C",compound 10 µM,38.4% and 36.1%
same,IC50,curve of compound,7.77 µM and 7.34 µM
COC1C=CCC(C)C(C)S(=O)(=O)NC(=O)c2ccc3c(c2)N(CC2CCC21)CC1(CCCc2cc(Cl)ccc21)CO3 (configuration not stated),"viability, T/C",compound 0.0316 µM,109% and 95.4%
same,"viability, T/C",compound 0.1 µM,103% and 97.3%
same,"viability, T/C",compound 0.316 µM,95.6% and 90.4%
same,"viability, T/C",compound 1 µM,94.7%
same,"viability, T/C",compound 3.16 µM,99.9% and 80.9%
same,"viability, T/C",compound 10 µM,8.41% and 5.61%
same,IC50,curve of compound,5.92 µM and 5.07 µM
COc1c(OCCCN2CCOCC2)ccc2c3n(c(=NC(=O)c4cnc(N)nc4)nc12)CCN3 + CN1CCN(c2cc(C(=O)Nc3cc4cc(-c5cnn(C)c5)ccc4cn3)ccn2)CC1,IC50,[1],0.0951 µM
same,IC50,[2],0.0217 µM
same,IC50,[3],< 0.00316 µM
same,IC50,[4],< 0.00316 µM
same,IC50,[5],< 0.00316 µM
same,IC50,[6],< 0.00316 µM
same,"viability, T/C","second compound 0.0316 µM, first compound 0.00316 µM",83.4%
same,"viability, T/C","second compound 0.0316 µM, first compound 0.01 µM",84.3%
same,"viability, T/C",[7],77.2%
same,"viability, T/C",[8],46.6%
same,"viability, T/C",[9],21.7%
same,"viability, T/C",[10],6.87%
same,"viability, T/C","second compound 0.1 µM, first compound 0.00316 µM",65.2%
same,"viability, T/C","second compound 0.1 µM, first compound 0.01 µM",63.8%
same,"viability, T/C",[13],43.4%
same,"viability, T/C",[14],18.1%
same,"viability, T/C",[15],9.33%
same,"viability, T/C",[16],4.74%
same,"viability, T/C","second compound 0.316 µM, first compound 0.00316 µM",1.28%
same,"viability, T/C","second compound 0.316 µM, first compound 0.01 µM",0.96%
same,"viability, T/C",[19],1.21%
same,"viability, T/C",[20],1.68%
same,"viability, T/C",[21],0.41%
same,"viability, T/C",[22],0.17%
same,"viability, T/C","second compound 1 µM, first compound 0.00316 µM",0.15%
same,"viability, T/C","second compound 1 µM, first compound 0.01 µM",0.11%
same,"viability, T/C",[25],0.55%
same,"viability, T/C",[26],0.06%
same,"viability, T/C",[27],1.84%
same,"viability, T/C",[28],1.26%
same,"viability, T/C","second compound 3.16 µM, first compound 0.00316 µM",0.21%
same,"viability, T/C","second compound 3.16 µM, first compound 0.01 µM",0.99%
same,"viability, T/C",[31],2.18%
same,"viability, T/C",[32],0.08%
same,"viability, T/C",[33],1.65%
same,"viability, T/C",[34],0.11%
same,"viability, T/C","second compound 10 µM, first compound 0.00316 µM",0.1%
same,"viability, T/C","second compound 10 µM, first compound 0.01 µM",1.86%
same,"viability, T/C",[37],0.15%
same,"viability, T/C",[38],0.42%
same,"viability, T/C",[39],0.43%
same,"viability, T/C",[40],0.62%
O=C(c1cc(Cc2n[nH]c(=O)c3ccccc23)ccc1F)N1CCN(C(=O)C2CC2)CC1 + CNC(=O)c1ccc(Nc2nc(OC3CCCC3)c3c(-c4ccc5nc(C)oc5c4)c[nH]c3n2)c(OC)c1,IC50,[1],> 10 µM
same,IC50,[2],> 10 µM
same,IC50,[3],< 0.0316 µM
same,IC50,[4],< 0.0316 µM
same,IC50,[5],< 0.0316 µM
same,IC50,[6],< 0.0316 µM
same,"viability, T/C",[7],94.7%
same,"viability, T/C",[8],107%
same,"viability, T/C",[9],98.4%
same,"viability, T/C",[10],104%
same,"viability, T/C",[11],94.6%
same,"viability, T/C",[12],75.9%
same,"viability, T/C",[13],101%
same,"viability, T/C",[14],105%
same,"viability, T/C",[15],95.8%
same,"viability, T/C",[16],101%
same,"viability, T/C",[17],92.8%
same,"viability, T/C",[18],77.4%
same,"viability, T/C",[19],39.6%
same,"viability, T/C",[20],52.1%
same,"viability, T/C",[21],40.9%
same,"viability, T/C",[22],51.4%
same,"viability, T/C",[23],47.8%
same,"viability, T/C",[24],40.3%
same,"viability, T/C",[25],36.5%
same,"viability, T/C",[26],33.9%
same,"viability, T/C",[27],31.4%
same,"viability, T/C",[28],33.3%
same,"viability, T/C",[29],29.9%
same,"viability, T/C",[30],24.3%
same,"viability, T/C",[31],32.3%
same,"viability, T/C",[32],33.2%
same,"viability, T/C",[33],35.1%
same,"viability, T/C",[34],32%
same,"viability, T/C",[35],29.4%
same,"viability, T/C",[36],22.5%
same,"viability, T/C",[37],26.3%
same,"viability, T/C",[38],33.6%
same,"viability, T/C",[39],30.4%
same,"viability, T/C",[40],29.4%
same,"viability, T/C",[41],28.2%
same,"viability, T/C",[42],23.8%
